We go through 13 molecules from paper PMC9581132, “Cross clinical-experimental-computational qualification of in silico drug trials on human cardiac purkinje cells for proarrhythmia risk prediction” (Frontiers in Toxicology, 2022).

Entries after “also recorded” stand apart in the source; their conditions may differ. Where two headings read alike, the source gives them in different places.

On the set-up of series [1]: method as in Woosley and Romer, 1999; key: 1: Known risk; 2: Conditional risk; NC: Not classified, i.e., evidence was not enough to add it to any risk category. Conditions: CredibleMeds category; ref Woosley and Romer, 1999; cited from earlier work.
The test system of another series is rabbit Purkinje fibers. As to the kind of experiment: In vitro drug assay on rabbit Purkinje fibers (microelectrode AP recordings). The note with it: for EADs occurrence in rabbit experiments / Risk classification based on EADs occurrence, in vitro rabbit: slow pacing; for EADs occurrence in rabbit experiments: across tested concentrations; for Risk classification based on EADs occurrence, in vitro rabbit: compared with clinical risk; for ΔAPD90 Exp: Normal pacing (1 Hz).

Series [2] has as its target T1, hCav1.2 (Homo sapiens, UniProt Q13936).
T1 construct: expressed in transfected cells; host or cells: CHO
As to the kind of experiment: Automated patch clamp (QPatch), L-type Ca2+ current ICaL. It counts as cell-based. Conditions: room temperature; dash = no effect or IC50 much higher than tested concentrations.

The next series concerns rabbit hearts. Conditions: cited from earlier work.
A further series relates to hiPSC-CMs. The note with it: 100 µM; ref Blinova et al., 2018; Yu et al., 2019; cited from earlier work.
The target in a further series is T2, hKv4.3 (Homo sapiens, UniProt Q9UK17).
T2 construct: expressed in transfected cells; host or cells: HEK-293
T2 sequence (Q9UK17 1-655): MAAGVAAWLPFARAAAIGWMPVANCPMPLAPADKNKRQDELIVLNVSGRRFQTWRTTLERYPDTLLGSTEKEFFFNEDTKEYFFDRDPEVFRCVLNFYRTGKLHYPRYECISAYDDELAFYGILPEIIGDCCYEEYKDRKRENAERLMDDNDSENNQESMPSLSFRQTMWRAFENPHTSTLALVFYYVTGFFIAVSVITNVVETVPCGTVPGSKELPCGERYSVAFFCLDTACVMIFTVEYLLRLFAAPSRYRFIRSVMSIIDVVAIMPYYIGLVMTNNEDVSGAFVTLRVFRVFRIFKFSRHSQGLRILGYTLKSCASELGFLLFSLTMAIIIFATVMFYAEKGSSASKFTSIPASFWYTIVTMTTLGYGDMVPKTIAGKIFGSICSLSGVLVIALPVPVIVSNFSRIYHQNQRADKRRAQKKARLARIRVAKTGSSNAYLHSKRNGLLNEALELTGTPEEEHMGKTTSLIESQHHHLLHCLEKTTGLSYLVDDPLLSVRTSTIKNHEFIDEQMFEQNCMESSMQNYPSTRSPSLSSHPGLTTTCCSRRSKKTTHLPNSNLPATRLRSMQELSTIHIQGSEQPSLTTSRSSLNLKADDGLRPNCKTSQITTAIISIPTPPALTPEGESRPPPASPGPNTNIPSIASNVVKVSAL
As to the kind of experiment: Automated patch clamp (QPatch), transient outward K+ current Ito. Format: cell-based. Conditions: room temperature; dash = no effect or IC50 much higher than tested concentrations.

The target in series [3] is T3, hNav1.5 (Homo sapiens, UniProt Q14524).
T3 construct: expressed in transfected cells; host or cells: HEK-293
As to the kind of experiment: Automated patch clamp (QPatch), fast Na+ current INa. Format: cell-based. The note with it: room temperature; dash = no effect or IC50 much higher than tested concentrations.

In the next series the target is T4, hERG (Homo sapiens, UniProt Q12809).
T4 construct: host or cells: CHO (hERG-CHO) and HEK-293 stably transfected with hERG cDNA
Conditions: ref Crumb et al., 2016; cited from earlier work.

Details of series [4]: method as in Démolis et al., 2003. Conditions: therapeutic doses; ref Démolis et al., 2003; cited from earlier work.
The target of series [5] is T3, hNav1.5. Also on record: method as in Crumb et al., 2016. The note with it: ref Crumb et al., 2016; cited from earlier work.
The target in series [6] is T1, hCav1.2. Conditions: ref Crumb et al., 2016; cited from earlier work.

T1 sequence (Q13936 whole entry): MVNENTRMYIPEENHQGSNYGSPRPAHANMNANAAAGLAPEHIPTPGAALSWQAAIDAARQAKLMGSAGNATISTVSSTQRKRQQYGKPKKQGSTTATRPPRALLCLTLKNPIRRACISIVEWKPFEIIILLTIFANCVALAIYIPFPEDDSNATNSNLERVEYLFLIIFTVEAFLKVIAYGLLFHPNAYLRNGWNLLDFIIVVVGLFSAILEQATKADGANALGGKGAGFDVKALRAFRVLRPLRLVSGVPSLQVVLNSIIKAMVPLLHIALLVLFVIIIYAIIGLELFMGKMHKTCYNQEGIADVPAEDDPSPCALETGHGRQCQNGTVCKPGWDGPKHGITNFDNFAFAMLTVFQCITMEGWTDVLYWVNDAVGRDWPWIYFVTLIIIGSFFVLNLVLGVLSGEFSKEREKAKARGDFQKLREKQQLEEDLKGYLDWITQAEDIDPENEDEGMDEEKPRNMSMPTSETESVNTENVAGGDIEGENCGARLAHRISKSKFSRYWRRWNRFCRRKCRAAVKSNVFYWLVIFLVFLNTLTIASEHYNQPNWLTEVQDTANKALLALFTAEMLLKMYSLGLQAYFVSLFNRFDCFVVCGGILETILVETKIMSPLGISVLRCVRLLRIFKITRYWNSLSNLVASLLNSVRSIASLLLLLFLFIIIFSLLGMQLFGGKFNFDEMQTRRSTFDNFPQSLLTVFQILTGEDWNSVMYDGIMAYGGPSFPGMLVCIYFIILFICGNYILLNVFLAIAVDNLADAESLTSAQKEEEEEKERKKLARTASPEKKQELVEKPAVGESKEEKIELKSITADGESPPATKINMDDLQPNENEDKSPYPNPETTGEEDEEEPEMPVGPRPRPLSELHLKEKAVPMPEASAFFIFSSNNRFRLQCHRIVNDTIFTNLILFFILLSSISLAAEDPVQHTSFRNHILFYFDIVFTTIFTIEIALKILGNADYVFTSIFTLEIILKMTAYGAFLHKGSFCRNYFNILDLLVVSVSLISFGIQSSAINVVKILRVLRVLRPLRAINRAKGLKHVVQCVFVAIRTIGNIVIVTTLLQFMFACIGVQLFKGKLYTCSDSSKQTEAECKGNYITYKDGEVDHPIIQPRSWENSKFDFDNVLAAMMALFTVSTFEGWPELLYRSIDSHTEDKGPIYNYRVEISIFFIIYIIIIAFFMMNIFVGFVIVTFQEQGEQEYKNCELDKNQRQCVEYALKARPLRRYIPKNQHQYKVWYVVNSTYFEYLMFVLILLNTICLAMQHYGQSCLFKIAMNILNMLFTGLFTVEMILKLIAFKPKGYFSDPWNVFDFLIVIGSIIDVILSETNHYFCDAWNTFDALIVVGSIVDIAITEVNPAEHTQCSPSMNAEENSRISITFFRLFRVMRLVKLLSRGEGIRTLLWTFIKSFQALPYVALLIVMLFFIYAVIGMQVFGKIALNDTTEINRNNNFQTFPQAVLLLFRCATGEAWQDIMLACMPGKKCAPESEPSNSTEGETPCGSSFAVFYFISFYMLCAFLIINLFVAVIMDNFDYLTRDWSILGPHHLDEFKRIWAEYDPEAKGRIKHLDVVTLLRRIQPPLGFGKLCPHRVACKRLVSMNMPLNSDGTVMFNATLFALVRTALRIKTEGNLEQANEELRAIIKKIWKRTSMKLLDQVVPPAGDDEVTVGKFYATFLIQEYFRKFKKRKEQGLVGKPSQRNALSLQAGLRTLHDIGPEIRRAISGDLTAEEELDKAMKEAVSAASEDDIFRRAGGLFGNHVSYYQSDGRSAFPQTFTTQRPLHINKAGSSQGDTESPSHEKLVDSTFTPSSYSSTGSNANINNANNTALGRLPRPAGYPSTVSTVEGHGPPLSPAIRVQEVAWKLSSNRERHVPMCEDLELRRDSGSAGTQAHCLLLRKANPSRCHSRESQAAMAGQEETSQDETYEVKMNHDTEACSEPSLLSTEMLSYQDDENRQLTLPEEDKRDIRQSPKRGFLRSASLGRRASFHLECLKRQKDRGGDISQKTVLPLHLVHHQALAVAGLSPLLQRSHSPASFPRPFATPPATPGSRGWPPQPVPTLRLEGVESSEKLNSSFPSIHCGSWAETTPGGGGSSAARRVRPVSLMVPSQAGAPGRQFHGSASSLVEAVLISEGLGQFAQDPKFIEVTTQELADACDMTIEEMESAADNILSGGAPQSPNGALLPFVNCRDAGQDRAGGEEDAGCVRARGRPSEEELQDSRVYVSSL
T3 sequence (Q14524 whole entry): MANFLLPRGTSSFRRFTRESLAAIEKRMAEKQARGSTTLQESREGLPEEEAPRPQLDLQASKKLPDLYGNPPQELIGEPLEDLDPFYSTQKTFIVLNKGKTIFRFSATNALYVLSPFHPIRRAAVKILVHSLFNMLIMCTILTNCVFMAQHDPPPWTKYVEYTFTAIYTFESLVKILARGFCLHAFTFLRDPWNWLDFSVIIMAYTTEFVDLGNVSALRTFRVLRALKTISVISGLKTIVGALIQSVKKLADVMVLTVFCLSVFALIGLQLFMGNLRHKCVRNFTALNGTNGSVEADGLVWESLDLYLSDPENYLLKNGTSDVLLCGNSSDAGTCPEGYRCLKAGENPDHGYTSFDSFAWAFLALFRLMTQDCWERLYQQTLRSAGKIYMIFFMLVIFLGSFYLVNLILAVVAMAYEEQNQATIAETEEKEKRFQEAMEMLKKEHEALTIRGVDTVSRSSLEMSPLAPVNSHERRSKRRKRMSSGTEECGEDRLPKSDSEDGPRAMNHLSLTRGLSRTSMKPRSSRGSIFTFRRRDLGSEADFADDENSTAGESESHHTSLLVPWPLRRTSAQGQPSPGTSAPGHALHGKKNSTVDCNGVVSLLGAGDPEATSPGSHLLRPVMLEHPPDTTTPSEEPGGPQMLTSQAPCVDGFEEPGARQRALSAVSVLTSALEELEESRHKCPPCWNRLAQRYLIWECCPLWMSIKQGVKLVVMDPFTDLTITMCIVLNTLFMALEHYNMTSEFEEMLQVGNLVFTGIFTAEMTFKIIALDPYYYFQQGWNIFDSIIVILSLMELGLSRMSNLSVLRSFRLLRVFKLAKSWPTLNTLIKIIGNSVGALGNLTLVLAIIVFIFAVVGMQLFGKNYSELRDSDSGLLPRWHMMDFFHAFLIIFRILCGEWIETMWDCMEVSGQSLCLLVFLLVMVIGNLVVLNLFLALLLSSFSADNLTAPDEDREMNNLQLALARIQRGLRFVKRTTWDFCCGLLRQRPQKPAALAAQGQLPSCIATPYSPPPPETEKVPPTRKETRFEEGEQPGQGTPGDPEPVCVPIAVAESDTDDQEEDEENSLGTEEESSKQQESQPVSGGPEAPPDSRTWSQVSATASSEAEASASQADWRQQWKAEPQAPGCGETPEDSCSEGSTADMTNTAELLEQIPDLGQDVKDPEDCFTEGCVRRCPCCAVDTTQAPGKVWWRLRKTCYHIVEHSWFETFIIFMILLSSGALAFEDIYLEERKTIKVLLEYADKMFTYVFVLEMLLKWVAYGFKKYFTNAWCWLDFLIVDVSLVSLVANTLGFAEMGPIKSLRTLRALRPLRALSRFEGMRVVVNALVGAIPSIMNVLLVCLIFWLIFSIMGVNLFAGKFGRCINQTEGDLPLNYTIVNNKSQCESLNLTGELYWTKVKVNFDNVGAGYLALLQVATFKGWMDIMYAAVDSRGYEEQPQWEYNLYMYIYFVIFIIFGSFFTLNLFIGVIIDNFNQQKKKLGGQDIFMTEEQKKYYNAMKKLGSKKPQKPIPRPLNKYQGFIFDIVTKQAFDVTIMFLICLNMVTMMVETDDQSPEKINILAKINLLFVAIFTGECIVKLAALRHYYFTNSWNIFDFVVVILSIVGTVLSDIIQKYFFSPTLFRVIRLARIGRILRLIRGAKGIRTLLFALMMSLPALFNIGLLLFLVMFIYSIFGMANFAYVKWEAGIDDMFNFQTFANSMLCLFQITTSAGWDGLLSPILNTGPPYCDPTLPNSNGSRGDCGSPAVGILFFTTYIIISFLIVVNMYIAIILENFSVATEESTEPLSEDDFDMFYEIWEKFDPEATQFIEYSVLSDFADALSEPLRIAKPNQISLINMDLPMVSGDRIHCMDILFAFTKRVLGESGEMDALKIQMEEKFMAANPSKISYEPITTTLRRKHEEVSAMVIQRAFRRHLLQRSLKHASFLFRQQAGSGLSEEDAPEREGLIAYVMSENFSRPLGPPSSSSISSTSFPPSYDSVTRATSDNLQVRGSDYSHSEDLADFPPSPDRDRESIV

Consider `COc1cc(N)c(Cl)cc1C(=O)NC1CCN(CCCOc2ccc(F)cc2)CC1OC` (stereo not drawn) [Cisapride], for which the TdP risk in series [1] is 1. The “EADs occurrence in rabbit experiments” value with rabbit Purkinje fibers was “induced EADs”. Half-maximal inhibition at hCav1.2 [2] (IC50) required 33 µM.
Turning to `COc1ccccc1OCC(O)CN1CCN(CC(=O)Nc2c(C)cccc2C)CC1` (stereo not drawn) [Ranolazine], the TdP risk in series [1] is recorded as 2. In the series with rabbit Purkinje fibers, the “EADs occurrence in rabbit experiments” value is given as “no EADs were observed” and the “Risk classification based on EADs occurrence, in vitro rabbit” value is “misclassified”. In addition, in the series on rabbit hearts (10 µM, ref Frommeyer et al., 2012, Sossalla et al., 2014), the “Effect in rabbit hearts” value is given as “anti-torsadogenic effects”. Besides, the “EADs in hiPSC-CMs” value in the series on hiPSC-CMs is listed as “induced EADs”. On hCav1.2 [2], it took 156 µM to reach half-maximal inhibition (IC50).
For `CC(C)COCC(CN(Cc1ccccc1)c1ccccc1)N1CCCC1` (stereo not drawn) [Bepridil], the TdP risk in series [1] is reported as 1. Further, the IC50 at hKv4.3 was 13 µM. Further, in the series on rabbit Purkinje fibers, the “EADs occurrence in rabbit experiments” value is “no EADs were observed” and the “Risk classification based on EADs occurrence, in vitro rabbit” value is “misclassified”. Further, the IC50 at hNav1.5 [3] was found to be 3.1 µM. Besides, in the series on rabbit hearts (up to 10 µM, ref Anno et al., 1984, Hondeghem et al., 2003), the “EADs in rabbit hearts” value is given as “did not induce EADs”.
For the molecule `Cc1nc2n(c(=O)c1CCN1CCC(c3noc4cc(F)ccc34)CC1)CCCC2` [Risperidone], in series [1], the TdP risk is 2.
The molecule `COC(=O)C1=C(C)NC(C)=C(C(=O)OC)C1c1ccccc1[N+](=O)[O-]` [Nifedipine] yielded an IC50 at hKv4.3 of 31 µM. In the series on rabbit Purkinje fibers, the “EADs occurrence in rabbit experiments” value was “did not induce any EADs” and the “Risk classification based on EADs occurrence, in vitro rabbit” value is “correctly classified as safe”.
For the molecule `CC[C@H]1OC(=O)[C@H](C)[C@@H](O[C@H]2C[C@@](C)(OC)[C@@H](O)[C@H](C)O2)[C@H](C)[C@@H](O[C@@H]2O[C@H](C)C[C@H](N(C)C)[C@H]2O)[C@](C)(OC)C[C@@H](C)C(=O)[C@H](C)[C@@H](O)[C@]1(C)O` [Clarithromycin], the IC50 on hERG was 62.5 µM; on hNav1.5 [5], 163 µM; on hCav1.2 [6], 103 µM. In [4], the QT prolongation result was “no QT prolongation at therapeutic doses”. Besides, the TdP risk in [1] is reported as 1. The “ΔAPD90 Exp” value in the series with rabbit Purkinje fibers (30 μM) worked out at 51%.
On to `COc1ccc(CCN2CCC(Nc3nc4ccccc4n3Cc3ccc(F)cc3)CC2)cc1` [Astemizole], for which the TdP risk in [1] is recorded as 1. The molecule further registered an IC50 at hKv4.3 of 22 µM. Moreover, in the series with rabbit Purkinje fibers, the “EADs occurrence in rabbit experiments” value is “induced EADs”.
`CC(C)NCC(O)c1ccc(NS(C)(=O)=O)cc1` (stereo not drawn) [Sotalol]: the “ΔAPD90 Exp” value in the series on rabbit Purkinje fibers (30 μM) is 96%.
For `CN(CCOc1ccc(NS(C)(=O)=O)cc1)CCc1ccc(NS(C)(=O)=O)cc1` [Dofetilide], in series [1], the TdP risk is given as 1. Also, the “ΔAPD90 Exp” value in the series on rabbit Purkinje fibers (0.01 μM) was determined as 113%.
With `CC(C)N(CCC(C(N)=O)(c1ccccc1)c1ccccn1)C(C)C` (stereo not drawn) [Disopyramide], the TdP risk in series [1] is 1. Besides, at hCav1.2 [2], 114 µM corresponded to half-maximal inhibition (IC50).
Take `C=C[C@H]1C[N@@]2CC[C@H]1C[C@@H]2[C@@H](O)c1ccnc2ccc(OC)cc12` [Quinidine]: the TdP risk in series [1] is recorded as 1.
At hKv4.3, `CC(C)(C)c1ccc(C(O)CCCN2CCC(C(O)(c3ccccc3)c3ccccc3)CC2)cc1` (stereo not drawn) [Terfenadine] came in with an IC50 of 68 µM. The “Risk classification based on mean APD90 prolongation >10%, in vitro rabbit” value with rabbit Purkinje fibers (1 Hz) is “false negative”. For the same molecule, in the series with rabbit Purkinje fibers (APD90 at 1 Hz, maximum over tested concentrations), the “AP prolongation in vitro rabbit experiments” value is listed as “up to 7%”. Besides, in the series with rabbit Purkinje fibers, the “EADs occurrence in rabbit experiments” value is recorded as “no EADs were observed” and the “Risk classification based on EADs occurrence, in vitro rabbit” value is on record as “misclassified”.
On to `COc1ccc([C@@H]2Sc3ccccc3N(CCN(C)C)C(=O)[C@@H]2OC(C)=O)cc1` [Diltiazem], for which, at hKv4.3, inhibition was half-maximal at 84 µM (IC50). Further, in the series with rabbit Purkinje fibers, the “EADs occurrence in rabbit experiments” value is reported as “did not induce any EADs; also recorded: did not induce any repolarization abnormalities” and the “Risk classification based on EADs occurrence, in vitro rabbit” value is recorded as “correctly classified as safe”.
